Legend:
[1] = target: T1, Type-1 angiotensin II receptor (Homo sapiens, UniProt P30556)
T1 sequence (P30556 whole entry): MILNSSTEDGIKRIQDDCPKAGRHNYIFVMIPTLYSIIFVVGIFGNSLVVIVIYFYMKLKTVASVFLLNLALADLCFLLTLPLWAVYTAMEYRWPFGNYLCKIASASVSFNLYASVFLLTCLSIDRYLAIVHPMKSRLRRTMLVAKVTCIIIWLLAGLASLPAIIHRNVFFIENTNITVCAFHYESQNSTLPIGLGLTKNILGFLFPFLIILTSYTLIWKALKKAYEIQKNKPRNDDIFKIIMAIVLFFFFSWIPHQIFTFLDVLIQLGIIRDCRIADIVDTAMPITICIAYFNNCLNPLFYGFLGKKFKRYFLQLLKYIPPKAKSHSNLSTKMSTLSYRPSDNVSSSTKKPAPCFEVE

Adenosine receptor A3 = target: T2, Adenosine receptor A3 (Homo sapiens, UniProt P0DMS8)
T2 sequence (P0DMS8 whole entry): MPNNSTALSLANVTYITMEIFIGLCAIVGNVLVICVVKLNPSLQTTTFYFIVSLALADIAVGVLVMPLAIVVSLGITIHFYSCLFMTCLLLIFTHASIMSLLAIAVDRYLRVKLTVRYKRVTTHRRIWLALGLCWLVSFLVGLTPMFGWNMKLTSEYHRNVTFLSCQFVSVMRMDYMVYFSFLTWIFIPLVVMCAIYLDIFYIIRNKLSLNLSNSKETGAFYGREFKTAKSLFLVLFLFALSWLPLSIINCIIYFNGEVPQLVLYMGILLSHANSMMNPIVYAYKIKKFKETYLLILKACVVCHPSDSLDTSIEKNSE

[2] = target: T3, Muscarinic acetylcholine receptor M2 (Homo sapiens, UniProt P08172)
T3 sequence (P08172 whole entry): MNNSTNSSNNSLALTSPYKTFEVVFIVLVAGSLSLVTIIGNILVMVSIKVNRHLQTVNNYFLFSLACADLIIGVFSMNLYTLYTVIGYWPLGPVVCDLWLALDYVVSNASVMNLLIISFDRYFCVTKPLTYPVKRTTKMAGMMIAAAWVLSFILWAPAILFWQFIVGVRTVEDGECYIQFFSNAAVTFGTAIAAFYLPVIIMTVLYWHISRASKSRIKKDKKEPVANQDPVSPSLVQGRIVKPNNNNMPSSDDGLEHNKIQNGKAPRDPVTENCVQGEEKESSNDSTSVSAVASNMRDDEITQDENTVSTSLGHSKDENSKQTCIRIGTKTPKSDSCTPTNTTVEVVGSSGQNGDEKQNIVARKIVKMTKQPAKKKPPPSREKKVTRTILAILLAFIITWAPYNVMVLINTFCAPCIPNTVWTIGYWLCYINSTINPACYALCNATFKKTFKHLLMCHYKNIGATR

Estrogen receptor = target: T4, Estrogen receptor (Homo sapiens, UniProt P03372)
T4 sequence (P03372 whole entry): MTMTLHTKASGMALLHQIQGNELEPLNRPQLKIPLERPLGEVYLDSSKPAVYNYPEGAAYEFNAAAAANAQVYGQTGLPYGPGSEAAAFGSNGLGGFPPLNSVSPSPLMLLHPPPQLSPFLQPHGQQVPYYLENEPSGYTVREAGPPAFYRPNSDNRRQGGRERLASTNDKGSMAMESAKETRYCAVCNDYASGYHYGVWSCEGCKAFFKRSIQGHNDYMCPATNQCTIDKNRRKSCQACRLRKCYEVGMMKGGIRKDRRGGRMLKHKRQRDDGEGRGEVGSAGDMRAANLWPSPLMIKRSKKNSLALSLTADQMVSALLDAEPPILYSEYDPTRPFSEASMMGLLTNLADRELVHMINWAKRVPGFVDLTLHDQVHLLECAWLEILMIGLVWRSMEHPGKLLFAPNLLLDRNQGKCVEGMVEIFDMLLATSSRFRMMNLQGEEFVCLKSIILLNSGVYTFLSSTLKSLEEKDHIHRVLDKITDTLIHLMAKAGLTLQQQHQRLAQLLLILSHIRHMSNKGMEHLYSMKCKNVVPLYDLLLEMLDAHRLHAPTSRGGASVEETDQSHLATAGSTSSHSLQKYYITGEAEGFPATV

Histamine H3 receptor = Histamine H3 receptor (Homo sapiens, UniProt Q9Y5N1)
[3] = target: T5, Amine oxidase [flavin-containing] A (Homo sapiens, UniProt P21397); type: functional
T5 sequence (P21397 whole entry): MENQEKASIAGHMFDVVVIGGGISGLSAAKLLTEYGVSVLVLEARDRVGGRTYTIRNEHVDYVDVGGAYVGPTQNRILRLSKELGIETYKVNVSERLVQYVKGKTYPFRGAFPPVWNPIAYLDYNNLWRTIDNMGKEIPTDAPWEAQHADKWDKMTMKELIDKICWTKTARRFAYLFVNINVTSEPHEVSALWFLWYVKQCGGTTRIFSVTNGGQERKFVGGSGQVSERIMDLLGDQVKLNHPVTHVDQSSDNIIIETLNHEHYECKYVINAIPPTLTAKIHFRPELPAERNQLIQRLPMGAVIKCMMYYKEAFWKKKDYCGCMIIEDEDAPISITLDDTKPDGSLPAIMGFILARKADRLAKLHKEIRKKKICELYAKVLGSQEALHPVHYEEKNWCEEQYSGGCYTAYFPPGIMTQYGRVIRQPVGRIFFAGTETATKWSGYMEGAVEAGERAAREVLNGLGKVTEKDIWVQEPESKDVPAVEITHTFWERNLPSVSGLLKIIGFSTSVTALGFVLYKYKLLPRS

[4] = target: cGMP-inhibited 3',5'-cyclic phosphodiesterase 3A (Homo sapiens, UniProt Q14432); type: functional
[5] = target: 3',5'-cyclic-AMP phosphodiesterase 4A (Homo sapiens, UniProt P27815); type: functional
[6] = target: Sodium-dependent noradrenaline transporter (Homo sapiens, UniProt P23975)
Further: assay procedure not described here.

Chain of Histamine H3 receptor (Q9Y5N1 whole entry): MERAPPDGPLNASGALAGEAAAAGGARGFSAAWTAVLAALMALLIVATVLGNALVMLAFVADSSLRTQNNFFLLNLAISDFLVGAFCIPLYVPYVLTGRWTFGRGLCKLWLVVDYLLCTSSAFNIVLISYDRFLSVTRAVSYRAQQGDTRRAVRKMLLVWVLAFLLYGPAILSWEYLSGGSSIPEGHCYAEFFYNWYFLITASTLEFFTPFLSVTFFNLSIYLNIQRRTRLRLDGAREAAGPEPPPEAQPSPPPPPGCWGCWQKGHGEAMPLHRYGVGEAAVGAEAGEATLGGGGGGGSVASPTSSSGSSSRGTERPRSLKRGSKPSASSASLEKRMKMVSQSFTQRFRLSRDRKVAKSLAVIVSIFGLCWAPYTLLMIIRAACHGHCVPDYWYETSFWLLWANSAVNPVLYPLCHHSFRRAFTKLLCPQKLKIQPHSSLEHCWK
Chain of Sodium-dependent noradrenaline transporter (P23975 whole entry): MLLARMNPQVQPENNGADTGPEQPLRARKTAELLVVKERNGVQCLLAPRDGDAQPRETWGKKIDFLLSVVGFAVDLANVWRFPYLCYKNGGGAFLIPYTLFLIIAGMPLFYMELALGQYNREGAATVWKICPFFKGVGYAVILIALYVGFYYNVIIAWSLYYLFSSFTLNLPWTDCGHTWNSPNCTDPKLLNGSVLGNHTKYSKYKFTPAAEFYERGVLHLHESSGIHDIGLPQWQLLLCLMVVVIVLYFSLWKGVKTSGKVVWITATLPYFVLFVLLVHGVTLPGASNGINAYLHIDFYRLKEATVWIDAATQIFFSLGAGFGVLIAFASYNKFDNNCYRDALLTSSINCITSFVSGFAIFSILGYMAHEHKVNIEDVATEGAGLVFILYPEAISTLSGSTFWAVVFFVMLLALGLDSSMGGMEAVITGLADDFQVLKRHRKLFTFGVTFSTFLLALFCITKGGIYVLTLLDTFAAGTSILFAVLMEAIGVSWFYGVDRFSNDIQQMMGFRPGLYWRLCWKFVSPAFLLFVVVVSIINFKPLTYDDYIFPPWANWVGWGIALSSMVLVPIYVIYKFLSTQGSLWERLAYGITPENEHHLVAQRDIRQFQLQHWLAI
Chain of cGMP-inhibited 3',5'-cyclic phosphodiesterase 3A (Q14432 whole entry): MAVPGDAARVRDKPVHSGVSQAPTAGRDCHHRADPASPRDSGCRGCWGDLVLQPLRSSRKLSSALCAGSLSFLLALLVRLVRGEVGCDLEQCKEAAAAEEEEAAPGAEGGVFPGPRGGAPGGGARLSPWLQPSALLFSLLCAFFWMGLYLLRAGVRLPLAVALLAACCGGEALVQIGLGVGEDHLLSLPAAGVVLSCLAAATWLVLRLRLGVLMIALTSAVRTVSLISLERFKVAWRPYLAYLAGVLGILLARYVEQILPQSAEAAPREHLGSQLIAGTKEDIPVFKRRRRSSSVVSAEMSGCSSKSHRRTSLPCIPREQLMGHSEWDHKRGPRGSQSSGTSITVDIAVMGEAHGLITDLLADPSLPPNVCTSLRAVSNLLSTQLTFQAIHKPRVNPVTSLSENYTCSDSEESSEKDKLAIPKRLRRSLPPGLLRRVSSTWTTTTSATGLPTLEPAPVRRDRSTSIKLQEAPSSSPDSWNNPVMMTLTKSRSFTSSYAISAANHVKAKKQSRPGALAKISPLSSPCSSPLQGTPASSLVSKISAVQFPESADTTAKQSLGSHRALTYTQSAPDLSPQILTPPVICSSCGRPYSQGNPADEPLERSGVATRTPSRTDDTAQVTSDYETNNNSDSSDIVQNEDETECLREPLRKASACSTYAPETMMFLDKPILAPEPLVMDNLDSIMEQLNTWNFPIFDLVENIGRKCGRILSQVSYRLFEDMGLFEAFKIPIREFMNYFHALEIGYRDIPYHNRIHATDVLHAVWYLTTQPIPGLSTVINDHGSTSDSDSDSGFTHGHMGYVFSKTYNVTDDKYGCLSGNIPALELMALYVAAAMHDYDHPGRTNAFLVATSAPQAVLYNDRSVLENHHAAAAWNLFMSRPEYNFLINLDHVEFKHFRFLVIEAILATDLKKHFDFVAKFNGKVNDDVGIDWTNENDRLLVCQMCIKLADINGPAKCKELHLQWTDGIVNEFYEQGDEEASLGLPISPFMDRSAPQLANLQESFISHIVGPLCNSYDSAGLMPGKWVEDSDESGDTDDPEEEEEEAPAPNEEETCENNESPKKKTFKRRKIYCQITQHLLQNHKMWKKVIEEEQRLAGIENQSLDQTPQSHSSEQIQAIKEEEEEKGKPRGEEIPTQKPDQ
Chain of 3',5'-cyclic-AMP phosphodiesterase 4A (P27815 whole entry): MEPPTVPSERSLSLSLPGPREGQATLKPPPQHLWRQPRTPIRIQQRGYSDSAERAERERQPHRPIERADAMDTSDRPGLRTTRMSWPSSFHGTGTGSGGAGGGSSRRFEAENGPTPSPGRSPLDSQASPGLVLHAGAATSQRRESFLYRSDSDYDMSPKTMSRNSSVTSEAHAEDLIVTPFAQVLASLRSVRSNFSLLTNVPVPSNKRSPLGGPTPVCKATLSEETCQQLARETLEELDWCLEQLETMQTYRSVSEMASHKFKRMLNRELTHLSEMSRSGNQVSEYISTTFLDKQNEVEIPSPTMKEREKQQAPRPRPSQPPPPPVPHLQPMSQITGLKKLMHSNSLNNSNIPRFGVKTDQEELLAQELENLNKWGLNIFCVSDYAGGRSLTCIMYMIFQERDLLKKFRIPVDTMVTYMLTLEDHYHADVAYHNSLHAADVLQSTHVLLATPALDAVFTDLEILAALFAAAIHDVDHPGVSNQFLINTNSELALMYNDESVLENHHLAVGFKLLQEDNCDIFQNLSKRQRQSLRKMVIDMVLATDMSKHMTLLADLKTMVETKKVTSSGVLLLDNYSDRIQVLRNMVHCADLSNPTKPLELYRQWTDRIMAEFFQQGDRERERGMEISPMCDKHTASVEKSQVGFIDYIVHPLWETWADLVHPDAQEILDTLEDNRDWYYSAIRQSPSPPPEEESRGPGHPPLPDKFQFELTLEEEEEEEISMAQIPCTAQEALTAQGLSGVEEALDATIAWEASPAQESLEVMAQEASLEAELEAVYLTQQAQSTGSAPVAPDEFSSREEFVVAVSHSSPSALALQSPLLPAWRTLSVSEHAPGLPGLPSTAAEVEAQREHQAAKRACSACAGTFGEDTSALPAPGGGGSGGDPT

SMILES | AC50 [1] [µM] | AC50 (Adenosine receptor A3) [µM] | AC50 [2] [µM] | AC50 (Estrogen receptor) [µM] | AC50 (Histamine H3 receptor) [µM] | AC50 [3] [µM] | AC50 [4] [µM] | AC50 [5] [µM] | AC50 [6] [µM]
O=c1c(O)c(-c2ccc(O)c(O)c2)oc2cc(O)cc(O)c12 [QUERCETIN] | > 100 |  |  |  |  |  |  |  | 
CCN(CC)CCCC(C)Nc1c2ccc(Cl)cc2nc2ccc(OC)cc12 (centres undefined) [QUINACRINE] |  | > 30 | 0.768 | > 30 | 0.693 | > 30 | > 30 | > 10 | 6.92
